These are literature values, as cited in US9433581B2, “Poly(vinyl benzoate) nanoparticles for molecular delivery” (University of South Florida, priority 2010, dated 2016).

For the data set the following is noted: octanol/water, reported in the literature.

The Log P is a log measure of how a compound divides between an organic and an aqueous phase. For the compound 5(6)-carboxyfluorescein, the log partition coefficient (Log P) is given as 5.43.

On to `CCN(CC)c1ccc2cc(-c3nc4ccccc4s3)c(=O)oc2c1` [Coumarin-6, coumarin-6], for which the log partition coefficient (Log P) is reported as −3.45.
